Measured values reported in ChEMBL document CHEMBL1128884, “Selective inhibition of the tyrosine kinase pp60src by analogs of 5,10-dihydropyrimido[4,5-b]quinolin-4(1H)-one” (Bioorg Med Chem Lett, 1995).

What was measured:
[1] = biological target: Proto-oncogene tyrosine-protein kinase Src (Homo sapiens, UniProt P12931); experiment: Inhibition of cellular oncogene pp60 c-src
[2] = biological target: cAMP-dependent protein kinase (PKA) (Homo sapiens, UniProt P22694+P17612+P22612); experiment: Inhibition of cAMP-dependent kinase (Protein kinase A); type: protein assay
[3] = biological target: Epidermal growth factor receptor (Homo sapiens, UniProt P00533); experiment: Inhibition of epidermal growth factor receptor (EGFR)
Sequence of Epidermal growth factor receptor (P00533 whole entry): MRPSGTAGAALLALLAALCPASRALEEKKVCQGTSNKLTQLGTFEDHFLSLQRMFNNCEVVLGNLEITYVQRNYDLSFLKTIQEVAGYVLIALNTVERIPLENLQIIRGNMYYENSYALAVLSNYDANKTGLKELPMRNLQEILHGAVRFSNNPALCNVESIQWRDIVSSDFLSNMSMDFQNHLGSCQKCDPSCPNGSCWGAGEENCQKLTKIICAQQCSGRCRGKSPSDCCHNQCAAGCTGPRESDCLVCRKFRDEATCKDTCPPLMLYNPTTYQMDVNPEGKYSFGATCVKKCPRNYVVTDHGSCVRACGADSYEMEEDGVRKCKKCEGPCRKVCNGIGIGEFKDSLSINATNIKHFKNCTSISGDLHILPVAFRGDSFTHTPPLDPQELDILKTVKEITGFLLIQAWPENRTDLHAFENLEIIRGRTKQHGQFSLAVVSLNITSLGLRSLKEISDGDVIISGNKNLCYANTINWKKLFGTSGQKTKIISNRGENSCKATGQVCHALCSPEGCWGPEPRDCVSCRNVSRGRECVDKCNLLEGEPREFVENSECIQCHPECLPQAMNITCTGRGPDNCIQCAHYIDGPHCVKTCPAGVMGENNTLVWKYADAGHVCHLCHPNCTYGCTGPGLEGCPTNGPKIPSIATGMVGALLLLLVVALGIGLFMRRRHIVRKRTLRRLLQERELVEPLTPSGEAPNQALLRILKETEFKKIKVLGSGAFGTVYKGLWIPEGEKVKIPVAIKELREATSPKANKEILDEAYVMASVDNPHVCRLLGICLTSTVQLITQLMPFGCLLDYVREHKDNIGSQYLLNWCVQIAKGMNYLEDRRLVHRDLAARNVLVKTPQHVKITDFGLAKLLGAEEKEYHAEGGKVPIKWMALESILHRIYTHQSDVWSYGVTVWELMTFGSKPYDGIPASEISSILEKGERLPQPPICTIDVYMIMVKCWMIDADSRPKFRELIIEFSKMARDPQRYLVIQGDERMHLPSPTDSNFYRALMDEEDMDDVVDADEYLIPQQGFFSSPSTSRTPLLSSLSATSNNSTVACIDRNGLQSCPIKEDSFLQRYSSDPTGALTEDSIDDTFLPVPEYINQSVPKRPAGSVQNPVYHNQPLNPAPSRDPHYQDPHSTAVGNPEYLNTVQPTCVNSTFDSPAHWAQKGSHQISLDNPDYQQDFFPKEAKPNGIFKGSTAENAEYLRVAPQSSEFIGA

Sequence of Proto-oncogene tyrosine-protein kinase Src (P12931 2-536 limits assumed): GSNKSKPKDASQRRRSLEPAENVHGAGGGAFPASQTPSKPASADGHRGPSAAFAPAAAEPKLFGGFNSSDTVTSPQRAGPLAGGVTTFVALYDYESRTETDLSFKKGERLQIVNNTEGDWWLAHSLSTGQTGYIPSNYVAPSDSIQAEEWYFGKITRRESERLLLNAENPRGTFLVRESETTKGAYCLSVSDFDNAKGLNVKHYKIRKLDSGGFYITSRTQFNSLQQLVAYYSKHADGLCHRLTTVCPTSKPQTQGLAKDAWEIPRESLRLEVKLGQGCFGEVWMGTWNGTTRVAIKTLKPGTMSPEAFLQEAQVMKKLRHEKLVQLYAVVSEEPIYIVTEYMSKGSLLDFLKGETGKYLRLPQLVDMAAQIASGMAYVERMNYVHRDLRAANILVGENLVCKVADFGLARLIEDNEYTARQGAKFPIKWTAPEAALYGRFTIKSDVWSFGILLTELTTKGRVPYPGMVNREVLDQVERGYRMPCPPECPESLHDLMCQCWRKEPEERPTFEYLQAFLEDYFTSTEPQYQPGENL

## COc1ccc2c(c1)Nc1ncnc(O)c1C2
[1]
  IC50: 0.5 µM
[2]
  IC50: > 3000 µM

## Oc1[nH]cnc2nc3ccccc3c1-2
[1]
  IC50: 293 µM

## COc1cc2c(cc1OC)Nc1ncn(CCN3CCOCC3)c(=O)c1C2
[1]
  IC50: 105 µM
[2]
  IC50: > 1000 µM

## COc1cc2c(cc1OC)Nc1ncnc(O)c1C2
[3]
  IC50: 75 µM
[1]
  IC50: 0.5 µM
[2]
  IC50: > 3000 µM

## Oc1ncnc2c1Cc1ccccc1N2
[1]
  IC50: 9.1 µM
[2]
  IC50: > 3000 µM

## COc1ccc2c(c1)Cc1c(O)ncnc1N2
[1]
  IC50: 3.7 µM
[2]
  IC50: > 3000 µM

## COc1cc2c(cc1OC)Nc1ncn(C)c(=O)c1C2
[3]
  IC50: 160 µM
[1]
  IC50: 1.2 µM
[2]
  IC50: > 3000 µM

## Oc1cc(Nc2ccccc2)ncn1
[1]
  IC50: 1550 µM
[2]
  IC50: > 4000 µM

## COc1cc2cc3c(O)ncnc3nc2cc1OC
[1]
  IC50: 32 µM
[2]
  IC50: > 750 µM

## CCc1nc(O)c2c(n1)Nc1ccccc1C2
[1]
  IC50: 38 µM
[2]
  IC50: > 3000 µM

## CCN1c2ccccc2Cc2c(O)ncnc21
[1]
  IC50: 550 µM
[2]
  IC50: > 960 µM
